Measured values from US10463709B2, “Short synthetic peptide for treating diseases and/or conditions related to angiogenesis” (MacKay Memorial Hospital, priority 2015, dated 2019).
“And” between values parts separate entries of the source, which are not always exact repeats. Equal values may be shown once. Square brackets hold non-standard residues; d marks the D form. Ends that are not written are not given here.

How the values were obtained:
HUVECs [1] = test: VEGF-induced HUVEC proliferation assay; assay type: cell-based; details: vs untreated HUVECs
Description: HUVECs (1×10^5 cells per well of 6-well plate) were grown in Medium 200 with Low Serum Growth Supplement (LSGS Kit, supplement contains 1.9% FBS, 3 ng/ml bFGF, 10 μg/ml heparin, 1 μg/ml hydrocortisone, and 10 ng/ml EGF). Culture plates were coated with 2% gelatin. Cells (passages 4-8) were cultured at 37° C. in a humidified atmosphere of 5% CO2. […]
HUVECs (1×10^5 cells per well of 6-well plate) in Medium 200 supplemented with LSGS Kit were allowed to grow onto 6-well plates coated with 2% gelatin for 24 hours at 37° C. in 5% CO2. The culture medium was then replaced with serum free Medium 200 overnight. […] Then, cells were harvested by trypsin-EDTA and counted using a hemocytometer.

HUVECs [2] = test: Endothelial cell capillary-like tube formation assay; assay type: cell-based; details: vs untreated HUVECs
Description: To examine the effect of the present synthetic peptide on in vitro angiogenesis, growth factor-reduced matrigel was pipetted into pre-chilled 24-well plates (150 μl matrigel per well) and polymerized for 45 min at 37° C. […] In this experiment, images were captured using a Cannon camera on Zeiss inverted microscope with magnification ×40 and tube length was quantified using Image analysis software (Image-Pro Plus). The control peptide as used in the present invention has the sequence of DLYRVR (SEQ ID NO: 10).

RPMI8226 cells = test: MTT assay, VEGF-induced proliferation of RPMI8226 cells; assay type: cell-based; details: for biological activity of the analogue relative to the 7-mer (summary statement of the description): summary of Example 1 findings; for effect on VEGF-induced proliferation of RPMI8226 cells: VEGF 50 ng/ml, 25 μM peptide, 24 hrs, MTT
Description: The multiple myeloma line RPMI8226 was cultivated in complex medium (RPMI1640) supplemented with 10% (vol/vol) heat-inactivated fetal calf serum (Invitrogen), 50 μg/mL penicillin, 50 μg/mL streptomycin, and 2 mM L-glutamine at 37° C. in a 5% CO2 atmosphere. RPMI8226 cells were cultured in serum-free RPMI1640 medium for 24 hrs, and then cells were seeded in 48-well culture plates (3×10^5 cells/well) and continued to culture in 0.5 ml fresh serum-free RPMI1640 medium containing 25 μM peptide for another 24 hrs. The cell viability was determined by the MTT assay. Briefly, 50 μL of MTT stock solution (50 μL) (5 mg MTT dissolved in 1 ml of sterile PBS) was added to each culture well. In addition, 50 μL of the MTT stock solution was added in 500 μL of medium as the negative control. The culture plate was incubated at 37° C. for 4 hours. Aliquots (450 μl) from each sample were taken to a new well of 48-well culture plate, adding 100 μL DMSO, mixing thoroughly using the pipette and reacted at 37° C. for 20 min and read absorbance at 570 nm. These synthesized peptides were then subject to MTT assay, in which vascular endothelial growth factor (VEGF) was used as a stimulant to induce cell proliferation. Results are depicted in FIGS. 1 to 4.

rat aortic ring = test: Rat aortic ring assay (ex vivo microvessel sprouting); design: species or system Sprague Dawley rats; details: beta-FGF induced; peptide 50 μM
Description: Thoracic aortas were removed from euthanized 10-week-old male Sprague Dawley rats, and gently stripped off periaortic fibroadipose tissue. Aortas were sectioned to about 2-mm length rings, which were embedded in Matrigel. To induce angiogenesis, human recombinant bFGF (50 ng/ml) or bFGF plus the peptide (50 μM) was added in Matrigel. Gel (200 μl) containing an aortic ring was polymerized in 12-well plates (37° C. for 30 min) and then incubated with 1 ml of Medium 200 supplemented with 100 units/ml penicillin, and […] streptomycin and 2% FBS at 37 ° C. The cultures were propagated at 37 ° C. in a humidified incubator for up to 7 days. Sprouts were recorded using an inverted microscope platform (Leica DM16000B) with bright-field optics. Each ring was scored by three independent observers on a scale 0-4 depending on the degree of sprouting vessel being observed (0=no sprouting, 4=profuse sprouting). The experiment was repeated in triplicates.

B16-F10 melanoma cells = test: Experimental pulmonary metastasis in mice; assay type: in vivo, C57BL/6 mice; details: for effect on number of colonies on the surface of the lung / in vivo metastasis / No. lung colonies: 10 mg/Kg intraperitoneal every 2 days; for No. lung colonies: day 8, n = 5; for Inhibition (%): lung colonies vs vehicle, 10 mg/Kg
Description: 2×10^5 B16-F10 cells were suspended in 100 μl PBS and checked for viability using trypan blue staining (>95%). The B16-F10 cells were then injected into the tail vein of the 6-week-old female C57BL/6 mice; while vehicle (DMSO), the present synthetic peptide or the control peptide (10 mg/kg) were administered by intraperitoneal injections every 2 days after the B16-F10 cell injection. Five mice were used for each group. On day 8 after inoculation of cells, the lungs were removed, and the number of visible colonies on the surface of the lungs were counted using a dissecting microscope.
Metastasis is the foremost cause of death from cancer. In this example, to investigate the efficacy of the present synthetic peptide on the metastasis of cancer cells, B16-F10 cells were injected into the tail vein of a mouse, the animal was then treated with the present synthetic peptide (7-mer or 7-mer DD, 10 mg/Kg) by intraperitoneal injections every 2 days. Upon completion of the experiment, the lungs were then removed and the tumor colonies visible to the eyes were then counted. Results are depicted in FIG. 10.

[3] = system: STZ-induced diabetic mice; test: Vascular abnormalities in the retina of diabetic mice; assay type: in vivo; details: for Fluorescence Intensity (Fold): leaked FITC-BSA in entire retina, vs vehicle
Description: Diabetic mice were generated by a single intraperitoneal injection of streptozotocin (STZ) (150 mg/kg body weight). STZ was freshly prepared in 0.1 M citrate buffer (pH 4.5). After injection, mice were supplied with 10% sucrose overnight to prevent sudden hypoglycemic shock. After 1 week, mice with non-fasting blood glucose levels >500 mg/dl were defined as diabetic and used for the experiments. DMSO Vehicle or the present synthetic peptide (10 mg/kg; n≥3 per peptide) were administered by intraperitoneal injections twice a day. After treatment for 24 h, mice were intraperitoneal injected with 100 mg/kg of BSA-FITC for further 30 min.
To determine vascular lesions (hemorrhaging areas) in retina, the animals were euthanized by CO2 inhalation, and the eyes were enucleated and fixed by 2% paraformaldehyde for 2 hr and flat-mounted onto glass slides to obtain optical sections by an epifluorescence microscopy. Vascular lesions in the retina was scored in all four retinal quadrants of flat mounts by using a 20× objective. Six microscopic fields were sampled in each quadrant in both the central and peripheral retina, and data were presented as the average number of lesions/retina.
Vascular FITC-BSA leakage was determined by a fluorescence spectrofluorometer based on standard curves of FITC-BSA at excitation and emission wavelengths of 488 and 535 nm, respectively, and then normalized to a non-injected control retina. For this analysis, retinas were dissected from treated and untreated diabetic mice after BSA-FITC injections, and each was solubilized in 300 μL ice-cold PBS.
Diabetic retinopathy is characterized by blood-retinal barrier (BRB) breakdown and neurotoxicity. To evaluate the possible beneficial effect of the present synthetic peptides on diabetic retinopathy, STZ-induced diabetic mice were intraperitoneally injected with 7-mer peptide, DMSO vehicle or the control peptide (SEQ ID NO: 22). The retinal vascular abnormality was then monitored by detecting the extravasation of BSA-fluorescein. Results are depicted in FIG. 11.

[4] = VEGF (10 ng/mL) + 25 μM peptide

VEGF [reference compound]
Cell number (Fold) (HUVECs [1]; VEGF (10 ng/mL) alone): 1.62 Fold and 1.62 ± 0.070 Fold | Tube length (Fold) (HUVECs [2]; VEGF (10 ng/mL) alone): 3.43 ± 0.32 Fold

NH2-Asp-Leu-Tyr-(D-Arg)-Val-Arg-Ser-COOH (H-DLY[dR]VRS-OH) [7-mer DR]
biological activity of the analogue relative to the 7-mer (summary statement of the description) (RPMI8226 cells): lose its biological activity

NH2-Asp-Leu-Tyr-Arg-Gln-Lys-Ser-COOH (DLYRQKS; not fully specified (N-terminus, C-terminus); printed as NH2-Asp-Leu-Tyr-Arg-Gln-Lys-Ser-COOH) [7-mer QK]
effect on VEGF-induced proliferation of RPMI8226 cells (RPMI8226 cells): could sustain 7-mer bioactivity, only partly | Cell number (Fold) (HUVECs [1]; [4]): 1.09 ± 0.067 Fold | Tube length (Fold) (HUVECs [2]; [4]): 1.46 ± 0.31 Fold | level of sprouting microvessels around the aortic ring (rat aortic ring): inhibited | effect on number of colonies on the surface of the lung / in vivo metastasis (B16-F10 melanoma cells): may suppress in vivo metastasis | No. lung colonies (B16-F10 melanoma cells): 82 ± 16.3 | Inhibition (%) (B16-F10 melanoma cells): 63.5% | extravasation of FITC-BSA [3]: may significantly prevent | Fluorescence Intensity (Fold) [3]: 0.31 ± 0.081 Fold

NH2-Asp-(D-Leu)-Tyr-Arg-Val-(D-Arg)-Ser-COOH (H-D[dL]YRV[dR]S-OH) [7-mer DR2]
biological activity of the analogue relative to the 7-mer (summary statement of the description) (RPMI8226 cells): lose its biological activity

NH2-Asp-Leu-Trp-Arg-Ile-Arg-Ser-COOH (DLWRIRS; not fully specified (N-terminus, C-terminus); printed as NH2-Asp-Leu-Trp-Arg-Ile-Arg-Ser-COOH) [7-mer WI]
effect on VEGF-induced proliferation of RPMI8226 cells (RPMI8226 cells): could sustain 7-mer bioactivity, only partly | Cell number (Fold) (HUVECs [1]; [4]): 0.91 ± 0.078 Fold | Tube length (Fold) (HUVECs [2]; [4]): 1.23 ± 0.22 Fold | level of sprouting microvessels around the aortic ring (rat aortic ring): inhibited | effect on number of colonies on the surface of the lung / in vivo metastasis (B16-F10 melanoma cells): may suppress in vivo metastasis | No. lung colonies (B16-F10 melanoma cells): 74 ± 24.3 | Inhibition (%) (B16-F10 melanoma cells): 67.3% | extravasation of FITC-BSA [3]: may significantly prevent | Fluorescence Intensity (Fold) [3]: 0.31 ± 0.085 Fold

NH2-Asp-Leu-Tyr-Arg-Val-Arg-(D-Ser)-COOH (H-DLYRVR[dS]-OH) [7-mer DS]
biological activity of the analogue relative to the 7-mer (summary statement of the description) (RPMI8226 cells): lose its biological activity | Cell number (Fold) (HUVECs [1]; [4]): 1.59 ± 0.084 Fold | Tube length (Fold) (HUVECs [2]; [4]): 3.45 ± 0.26 Fold | level of sprouting microvessels around the aortic ring (rat aortic ring): unaffected | No. lung colonies (B16-F10 melanoma cells): 245 ± 30.4 | Inhibition (%) (B16-F10 melanoma cells): −9.0% | Fluorescence Intensity (Fold) [3]: 0.96 ± 0.12 Fold

NH2-Asp-Leu-(D-Tyr)-Arg-Val-Arg-Ser-COOH (H-DL[dY]RVRS-OH) [7-mer DY]
biological activity of the analogue relative to the 7-mer (summary statement of the description) (RPMI8226 cells): lose its biological activity | Cell number (Fold) (HUVECs [1]; [4]): 1.63 ± 0.077 Fold

NH2-Phe-Leu-Tyr-Arg-Val-Arg-Ser-COOH (FLYRVRS; not fully specified (N-terminus, C-terminus); printed as NH2-Phe-Leu-Tyr-Arg-Val-Arg-Ser-COOH) [7-mer (D→F)]
effect on VEGF-induced proliferation of RPMI8226 cells (RPMI8226 cells): could sustain 7-mer bioactivity, only partly | biological activity of the analogue relative to the 7-mer (summary statement of the description) (RPMI8226 cells): relatively the same bioactivity

NH2-Val-Leu-Tyr-Arg-Val-Arg-Ser-COOH (VLYRVRS; not fully specified (N-terminus, C-terminus); printed as NH2-Val-Leu-Tyr-Arg-Val-Arg-Ser-COOH) [7-mer (D→V)]
effect on VEGF-induced proliferation of RPMI8226 cells (RPMI8226 cells): could sustain 7-mer bioactivity, only partly | biological activity of the analogue relative to the 7-mer (summary statement of the description) (RPMI8226 cells): relatively the same bioactivity

NH2-Ala-Leu-Tyr-Arg-Val-Arg-Ser-COOH (ALYRVRS; not fully specified (N-terminus, C-terminus); printed as NH2-Ala-Leu-Tyr-Arg-Val-Arg-Ser-COOH) [7-mer Da]
effect on VEGF-induced proliferation of RPMI8226 cells (RPMI8226 cells): sustained part of the 7-mer activity

NH2-Asp-Ala-Tyr-Arg-Val-Arg-Ser-COOH (DAYRVRS; not fully specified (N-terminus, C-terminus); printed as NH2-Asp-Ala-Tyr-Arg-Val-Arg-Ser-COOH) [7-mer La]
effect on VEGF-induced proliferation of RPMI8226 cells (RPMI8226 cells): sustained part of the 7-mer activity

NH2-Asp-Val-Phe-Arg-Val-Arg-Thr-COOH (DVFRVRT; not fully specified (N-terminus, C-terminus); printed as NH2-Asp-Val-Phe-Arg-Val-Arg-Thr-COOH) [7-mer VFT]
effect on VEGF-induced proliferation of RPMI8226 cells (RPMI8226 cells): could sustain 7-mer bioactivity, only partly | biological activity of the analogue relative to the 7-mer (summary statement of the description) (RPMI8226 cells): relatively the same bioactivity

NH2-Asp-Leu-Tyr-Arg-Val-Gln-Ser-COOH (DLYRVQS; not fully specified (N-terminus, C-terminus); printed as NH2-Asp-Leu-Tyr-Arg-Val-Gln-Ser-COOH) [7-mer (R2→Q)]
effect on VEGF-induced proliferation of RPMI8226 cells (RPMI8226 cells): could sustain 7-mer bioactivity, only partly

NH2-Leu-Leu-Tyr-Arg-Val-Arg-Ser-COOH (LLYRVRS; not fully specified (N-terminus, C-terminus); printed as NH2-Leu-Leu-Tyr-Arg-Val-Arg-Ser-COOH) [7-mer (D→L)]
effect on VEGF-induced proliferation of RPMI8226 cells (RPMI8226 cells): could sustain 7-mer bioactivity, only partly | biological activity of the analogue relative to the 7-mer (summary statement of the description) (RPMI8226 cells): relatively the same bioactivity

H-D[dL]YRVRS-OH [7-mer DL]
biological activity of the analogue relative to the 7-mer (summary statement of the description) (RPMI8226 cells): lose its biological activity
